The target in data set [1] is T1, Human recombinant dopamine D2 receptor (Homo sapiens, UniProt P14416).
T1 construct: purchased PerkinElmer; host or cells: CHO cell line
As to the kind of experiment: Measurement of affinity for dopamine D2 receptor ([3H]spiperone binding). Conditions: for IC50: [3H]spiperone 0.5 nM, CHO cell line, 60 min at 27° C. The procedure: Human recombinant dopamine D2 and D3 receptors, which were expressed in CHO cell lines, respectively, were purchased from PerkinElmer and Euroscreen, respectively.
50 mM Tris-HCl (pH 7.4) containing […] and 1 mM EDTA was used as a buffer solution for the measurement of affinity for dopamine D2 receptor. 50 mM Tris-HCl (pH 7.4) containing 5 mM MgCl2, 5 mM EDTA, 5 mM KCl, 1.5 mM CaCl2 and 120 mM NaCl was used as a buffer solution for the measurement of affinity for dopamine D3 receptor. For measurement of non-specific binding, 10 μM haloperidol (haloperidol) was used.

The target of the next data set is T2, 5-HT1A receptor (Homo sapiens, UniProt P08908).
T2 sequence (P08908 1-422): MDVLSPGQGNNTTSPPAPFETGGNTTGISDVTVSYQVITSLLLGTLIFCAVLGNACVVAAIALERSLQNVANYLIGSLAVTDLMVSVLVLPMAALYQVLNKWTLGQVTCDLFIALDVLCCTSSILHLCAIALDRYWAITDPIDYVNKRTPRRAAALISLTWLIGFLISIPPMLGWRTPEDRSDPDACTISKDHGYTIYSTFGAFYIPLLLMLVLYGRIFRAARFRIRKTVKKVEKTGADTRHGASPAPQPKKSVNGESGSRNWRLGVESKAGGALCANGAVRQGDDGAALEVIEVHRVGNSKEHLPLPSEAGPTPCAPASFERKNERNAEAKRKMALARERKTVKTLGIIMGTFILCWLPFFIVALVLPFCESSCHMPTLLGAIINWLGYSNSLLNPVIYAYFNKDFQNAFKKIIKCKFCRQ
As to the kind of experiment: Serotonin receptor binding experiment, 5-HT1A. The arrangement: species or system human or rat. The note with it: [3H]8-OH-DPAT 0.5 nM, 60 min at 27° C.; read-out: Receptor affinity (IC50, nM) 5-HT1A. The method, then: The measurement of affinity for serotonin 5-HT receptor family was performed according to the experimental conditions as specified in Table 2 below using the method same as in Experimental Example 1 above.

Data set [2] in a line: Rotarod deficit in mice. In kind it is in vivo. The note with it: mouse, in vivo, ip, mice, rod rotating at 6 rpm, 30-120 min after administration. The method, then:
(§1) Each mouse was administered with a test drug, and then placed on a 1 inch diameter knurled plastic rod rotating at 6 rpm (Ugo-Basile, Milano, Italy), and the rotarod deficit (%) was obtained by counting the number of mice fallen from the rotating rod within 1 min at 30, 60, 90, and 120 min after the administration of the drug.
In general terms: The rotarod test checks motor coordination on a turning rod.

The subject of data set [3] is rotarod deficit in mice. As to the kind of experiment: Rotarod deficit in mice. The class given is in vivo. The note with it: for Rotarod deficit TD50 (mg/kg, ip): mice, rod rotating at 6 rpm, 30-120 min after administration; for rotarod deficit TD50 as times of ED50 for antipsychotic efficacy: mouse, in vivo, ip. The method, then:
as §1

T1 sequence (P14416 whole entry): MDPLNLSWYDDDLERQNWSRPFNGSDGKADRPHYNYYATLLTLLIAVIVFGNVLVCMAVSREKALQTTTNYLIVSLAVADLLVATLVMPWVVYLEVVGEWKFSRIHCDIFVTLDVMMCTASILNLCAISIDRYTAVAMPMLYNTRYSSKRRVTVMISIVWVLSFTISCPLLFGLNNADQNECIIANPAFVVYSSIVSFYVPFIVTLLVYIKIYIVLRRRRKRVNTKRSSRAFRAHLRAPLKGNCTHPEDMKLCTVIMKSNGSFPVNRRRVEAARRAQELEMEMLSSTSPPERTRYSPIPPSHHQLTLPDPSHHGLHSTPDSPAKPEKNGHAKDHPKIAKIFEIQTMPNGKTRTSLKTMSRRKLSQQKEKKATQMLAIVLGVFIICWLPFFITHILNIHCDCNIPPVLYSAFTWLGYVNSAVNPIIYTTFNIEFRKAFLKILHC

As to `CCCc1cc(CCCN2CCN(c3ccc(C)c(C)c3)CC2)n(-c2ccccc2)n1` [Compound 159, 1-(3,4-dimethylphenyl)-4-(3-(1-phenyl-3-propyl-1H-pyrazol-5-yl)propyl)piperazine], in data set [1], the “affinity for D2 receptors (in words)” value is listed as “extremely poor affinity” and the IC50 (commonly the concentration that gives 50% inhibition) turned out to be 2050 nM. Further, the IC50 at 5-HT1A receptor was 413 nM. Besides, the TD50 – broadly, the 50% point of the dose-response relation for the toxic effect studied – in the data set “Rotarod deficit in mice [2]” lay within 20 to 50 mg/kg. In the data set on rotarod deficit in mice [3], the “Rotarod deficit TD50 (mg/kg, ip)” value is recorded as 35.3 mg/kg and the “rotarod deficit TD50 as times of ED50 for antipsychotic efficacy” value (“rotarod deficit TD50 as times of ED50” for short) is given as 2.2-5 times.

Consider `CCCc1cc(CCCN2CCN(c3ccccc3F)CC2)n(-c2ccccc2)n1` [Compound 156, 1-(2-fluorophenyl)-4-(3-(1-phenyl-3-propyl-1H-pyrazol-5-yl)propyl)piperazine], for which, in data set [1], the “affinity for D2 receptors (in words)” value is “extremely poor affinity” and the IC50 came to 696 nM. Also, the IC50 at 5-HT1A receptor was found to be 126 nM. This molecule had a TD50 in “Rotarod deficit in mice [2]” of 20 to 50 mg/kg. Besides, in the data set on rotarod deficit in mice [3], the “Rotarod deficit TD50 (mg/kg, ip)” value is given as 26.0 mg/kg and the “rotarod deficit TD50 as times of ED50” value was 2.2-5 times.

Consider `CCCc1cc(CCCN2CCN(c3cccc(C)c3C)CC2)n(-c2ccccc2)n1` [Compound 160, 1-(2,3-dimethylphenyl)-4-(3-(1-phenyl-3-propyl-1H-pyrazol-5-yl)propyl)piperazine], for which, in data set [1], the “affinity for D2 receptors (in words)” value is “extremely poor affinity” and the IC50 stood at 3790 nM. At 5-HT1A receptor, the IC50 came to 50 nM. In “Rotarod deficit in mice [2]”, this molecule yielded a TD50 of 20 to 50 mg/kg. In the data set with rotarod deficit in mice [3], the “Rotarod deficit TD50 (mg/kg, ip)” value is 24.6 mg/kg and the “rotarod deficit TD50 as times of ED50” value is recorded as 2.2-5 times.

On to `CCCc1cc(CCCN2CCN(c3ccccc3)CC2)n(-c2ccccc2)n1` [Compound 155, 1-phenyl-4-(3-(1-phenyl-3-propyl-1H-pyrazol-5-yl)propyl)piperazine], for which, in data set [1], the “affinity for D2 receptors (in words)” value is “extremely poor affinity” and the IC50 was determined as 5260 nM. The IC50 at 5-HT1A receptor stood at 109 nM. The molecule further showed a TD50 in the data set “Rotarod deficit in mice [2]” of 20 to 50 mg/kg. Besides, in the data set on rotarod deficit in mice [3], the “Rotarod deficit TD50 (mg/kg, ip)” value was 28.5 mg/kg and the “rotarod deficit TD50 as times of ED50” value is listed as 2.2-5 times.

Consider `CC(C)c1cc(CCCN2CCN(c3ccccc3F)CC2)n(-c2ccccc2)n1` [Compound 177, 1-(2-fluorophenyl)-4-(3-(1-phenyl-3-isopropyl-1H-pyrazol-5-yl)propyl)piperazine], for which, in data set [1], the “affinity for D2 receptors (in words)” value was “extremely poor affinity” and the IC50 turned out to be 227 nM. Further, the IC50 on 5-HT1A receptor turned out to be 37 nM. In “Rotarod deficit in mice [2]”, this molecule gave a TD50 of 20 to 50 mg/kg. Moreover, in the data set on rotarod deficit in mice [3], the “Rotarod deficit TD50 (mg/kg, ip)” value turned out to be 19.4 mg/kg and the “rotarod deficit TD50 as times of ED50” value is 2.2-5 times.

Source of the values: patent US8372844B2, “Piperazinyl-propyl-pyrazole derivatives as dopamine D4 receptor antagonists, and pharmaceutical compositions containing the same” (Korea Research Institute of Chemical Technology, priority 2007, dated 2013).
